Test results taken from PubChem BioAssay (NCI).
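Exposure lasted 48 hours, with cells grown in 96-well plates and compounds tested at five concentrations. TGI denotes the concentration required for complete inhibition of growth.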

How the values were obtained:
Test in all cases: DTP human tumour cell line panel, 48 h
CCRF-CEM leukemia = system: CCRF-CEM leukemia
DLD-1 colon = system: DLD-1 colon
EKVX NSCLC = system: EKVX NSCLC
HCC-2998 colon = system: HCC-2998 colon
HCT-15 colon = system: HCT-15 colon
HL-60(TB) leukemia = system: HL-60(TB) leukemia
K-562 leukemia = system: K-562 leukemia
KM12 colon = system: KM12 colon
LOX IMVI melanoma = system: LOX IMVI melanoma
MOLT-4 leukemia = system: MOLT-4 leukemia
NCI-H460 lung = system: NCI-H460 lung
NCI-H522 lung = system: NCI-H522 lung
OVCAR-5 ovarian = system: OVCAR-5 ovarian
RXF 393 renal = system: RXF 393 renal
SF-268 CNS = system: SF-268 CNS
SK-MEL-2 melanoma = system: SK-MEL-2 melanoma
SK-MEL-28 melanoma = system: SK-MEL-28 melanoma
SNB-19 CNS = system: SNB-19 CNS
UACC-257 melanoma = system: UACC-257 melanoma
UACC-62 melanoma = system: UACC-62 melanoma

Structure (SMILES) | TGI (CCRF-CEM leukemia) [µM] | TGI (DLD-1 colon) [µM] | TGI (EKVX NSCLC) [µM] | TGI (HCC-2998 colon) [µM] | TGI (HCT-15 colon) [µM] | TGI (HL-60(TB) leukemia) [µM] | TGI (K-562 leukemia) [µM] | TGI (KM12 colon) [µM] | TGI (LOX IMVI melanoma) [µM] | TGI (MOLT-4 leukemia) [µM] | TGI (NCI-H460 lung) [µM] | TGI (NCI-H522 lung) [µM] | TGI (OVCAR-5 ovarian) [µM] | TGI (RXF 393 renal) [µM] | TGI (SF-268 CNS) [µM] | TGI (SK-MEL-2 melanoma) [µM] | TGI (SK-MEL-28 melanoma) [µM] | TGI (SNB-19 CNS) [µM] | TGI (UACC-257 melanoma) [µM] | TGI (UACC-62 melanoma) [µM]
CC(C)=CC(=O)OC1C2C(C)=CC(O)C(O)C2(C)C2C3(O)OCC24C(CC(=O)OC14)C(C)C3O (stereo not given) | 0.624 | 0.485 | 0.642 | 0.572 | 6.84 | 0.409 | 1.79 | 0.622 | 0.325 | 1.31 | 0.337 | 0.103 | 3.79 | 0.933 | 0.733 | 0.655 | 0.199 | 0.519 | 2.43 | 0.263
COc1cc(/C=C/C2=C(C#N)C(=O)OC2(C)C)ccc1O | 33.1 | > 100 | > 100 | > 100 | 93.8 | > 100 | > 100 | > 100 | 44.2 | > 100 | > 100 | 44.4 | > 100 | > 100 | > 100 | > 100 | > 100 | > 100 | > 100 | > 100
Nc1n[nH]c(CCCCCCCc2nc(N)n[nH]2)n1 | > 100 | > 100 | > 100 | > 100 | > 100 | > 100 | > 100 | > 100 | > 100 | > 100 | > 100 | > 100 | > 100 | > 100 | > 100 | > 100 | > 100 | > 100 | > 100 | > 100
